Reference: paper PMC5796017, “Enantiomeric Effect of D-Amino Acid Substitution on the Mechanism of Action of α-Helical Membrane-Active Peptides” (International Journal of Molecular Sciences, 2017)
≈ marks a conversion by molar mass, not a printed value.

Assays:
[1] = system: human red blood (hRBC) cells; assay: Hemolytic activity assay; format: cell-based; settings: 2% human RBC in PBS, 37 °C, 2 h, absorbance 578 nm, triplicate
Protocol: The […] of the peptides was measured by a hemolytic activity assay as described previously. Briefly, healthy human RBCs were collected using an anticoagulation tube with EDTAK2 and centrifuged at 1000 rpm for 5 min. The erythrocytes were washed three times, then diluted to a concentration of 2% in phosphate-buffered saline (PBS). The peptides were serially diluted in PBS and 70 μL of the peptide solutions and 2% RBC suspension were added simultaneously to each well of a 96-well plate (round bottom) for a further incubation at 37 °C for 2 h. Then, the plates were centrifuged for 10 min at 3000 rpm and the supernatant (90 μL) was transferred to a 96-well plate (flat bottom). The absorbance of the supernatant was measured on a microplate reader at 578 nm. Erythrocytes in PBS and distilled water were used as the negative (0%) and positive (100%) controls, respectively. The hemolytic activity was calculated as the percentage of experimental group over positive control (100%), after subtraction of negative control (0%). The hemolytic assays were repeated in triplicate.

[2] = system: S. epidermidis ATCC12228; assay: Antimicrobial activity, microtiter dilution MIC; format: cell-based, Staphylococcus epidermidis; settings: G+; MH medium, 5 × 10^5 CFU/mL, 37 °C, 24 h, triplicate
Protocol: (§1) The antimicrobial activity of the peptides was determined by the standard microtiter dilution method and indicated as MIC (minimal inhibitory concentration) as described previously. Briefly, bacteria were cultured in Mueller–Hinton (MH) medium overnight at 37 °C, diluted to a final inoculum of 5 × 10^5 colony-forming units (CFU)/mL with MH and loaded into 96-well microtiter plates (90 μL/well) with serial dilution of peptides (10 μL/well), with a further incubation at 37 °C for 24 h. MIC was expressed as the lowest peptide concentration that inhibited the growth of bacteria. The antimicrobial assays were repeated in triplicate.

[3] = system: BxPC-3; assay: MTT cell viability assay; format: cell-based, human; settings: BxPC-3, MTT, 24 h; mean ± SEM of three independent determinations
Protocol: (§2) HeLa, MIA PaCa-2, HPAC, and Bxpc-3 cells were maintained in Dulbecco’s modified Eagle medium) with 10% fetal bovine serum, penicillin (100 U/mL), and streptomycin ([…]) in a humid atmosphere at 37 °C with 5% CO2. The effect of the peptides on the survival of HeLa, MIA PaCa-2, HPAC, and Bxpc-3 cells was determined by 3-(4,5-dimethyl-2-thiazolyl)-2,5-diphenyl-2H-tetrazolium bromide (MTT) assay, as described in a previous study. Briefly, cells were seeded in 96-well plates at a density of 5000 per well. After overnight incubation, cells were incubated, in the absence, or presence of various concentrations of peptides for 24 h. Then, the formazan crystals formed by MTT were dissolved with dimethyl sulfoxide (DMSO) and the absorbance was determined at 492 nm with a microplate reader (GF-M3000; Gaomi Caihong Analytical Instruments Co., Shandong, China). The results were expressed as IC50 values, representing the concentration at which cell viability was reduced by 50%. The cytotoxicity assays were repeated in triplicate.

[4] = system: HPAC; assay: MTT cell viability assay; format: cell-based, human; settings: 24 h, mean ± SEM of three independent determinations
Protocol: as §2

[5] = system: HeLa; assay: MTT cell viability assay; format: cell-based, human; settings: 24 h, mean ± SEM of three independent determinations
Protocol: as §2

[6] = system: MIA PaCa-2; assay: MTT cell viability assay; format: cell-based, human; settings: MIA PaCa-2, MTT, 24 h; mean ± SEM of three independent determinations
Protocol: as §2

[7] = system: P. aeruginosa ATCC27853; assay: Antimicrobial activity, microtiter dilution MIC; format: cell-based, Pseudomonas aeruginosa; settings: G−; MH medium, 5 × 10^5 CFU/mL, 37 °C, 24 h, triplicate
Protocol: as §1

[8] = Circular dichroism (CD) secondary structure; format: physicochemical; settings: for [θ]222, benign / [θ]222, 50% TFE: CD, 75 μM peptide, 25 °C; for [θ]222, benign: KP buffer (100 mM KCl, 50 mM KH2PO4/K2HPO4, pH 7.4); for [θ]222, 50% TFE / α-Helix (%), 50% TFE (relative helicity): KP buffer with 50% TFE; for α-Helix (%), 50% TFE (relative helicity) / α-Helix (%), benign: relative to molar ellipticity of V13K in 50% TFE; for α-Helix (%), benign: KP buffer
Text: The influence of the amino acid substitutions on the peptide secondary structure were investigated using circular dichroism (CD) spectroscopy under benign conditions (KP buffer) and under conditions designed to mimic the hydrophobic environment of the membrane (KP buffer with 50% TFE). D-amino acid substitutions reduced the helicity of the peptide analogs relative to that of peptide V13K, in both KP buffer and KP buffer with 50% TFE. […] As shown in Table 2 and Figure S1, the values of the relative helicity of peptides with polar face substitutions are in the order of K14D (76.99%) > S11D/K14D (51.33%) > S11D/K14D/T15D (38.67%). Similarly, the relative helicity of the peptides with substitutions on the non-polar face follows the same trend: A12D (70.83%) > F9D/A12D (38.26%) > F9D/A12D/V16D (36.41%). Since the values of the relative helicity of the peptides with D-amino acid substitutions on the non-polar face were less than those peptide analogs with the same number of D-amino acid substitutions on the polar face, it is clear that the amino acid residues on the non-polar face may be more important for stabilizing the α-helical structure than residues on the polar face.
The secondary structures of the peptides were examined using a Jasco J-810 CD spectrometer (Jasco, Easton, MD, USA) at 25 °C as described previously. […] The mean residue molar ellipticities were calculated according to the equation [θ] = θ/10lCMn, in which, θ represents the ellipticity in millidegrees, l is the optical path length of the cuvette in centimeters, CM is the peptide concentration in mol/L, and n is the number of residues in the peptide. The mean residue molar ellipticities at 222 nm, [θ]222 (degree·cm^2·dmol^−1), were used to calculate the relative helical content of the peptides.

[9] = RP-HPLC retention time as relative hydrophobicity; format: physicochemical; settings: 25 °C, used by the paper as measure of relative hydrophobicity
Protocol: The RP-HPLC retention time has been widely used to represent the relative hydrophobicity of peptides in many studies.The relative hydrophobicity of the peptides was determined by the RP-HPLC retention times at 25 °C. The change in hydrophobicity of the peptides caused by D-amino acid substitutions was mainly due to the disruption of the helical structure.

[10] = system: E. coli ATCC25922; assay: Antimicrobial activity, microtiter dilution MIC; format: cell-based, Escherichia coli; settings: G−; MH medium, 5 × 10^5 CFU/mL, 37 °C, 24 h, triplicate
Protocol: as §1

[11] = system: S. aureus ATCC25923; assay: Antimicrobial activity, microtiter dilution MIC; format: cell-based, Staphylococcus aureus; settings: G+; MH medium, 5 × 10^5 CFU/mL, 37 °C, 24 h, triplicate
Protocol: as §1

Row | Compound | MHC (minimal hemolytic concentration) [1] | MIC [2] | IC50 [3] | IC50 [4] | IC50 [5] | IC50 [6] | MIC [7] | [θ]222, benign [8] | [θ]222, 50% TFE [8] | α-Helix (%), 50% TFE (relative helicity) [8] | α-Helix (%), benign [8] | tR (RP-HPLC retention time), relative hydrophobicity [9] | MIC [10] | MIC [11]
1 | CC[C@H](C)[C@H](NC(=O)[C@H](C)NC(=O)[C@H](CCCCN)NC(=O)[C@H](CC(C)C)NC(=O)[C@H](C)NC(=O)[C@@H](NC(=O)[C@H](Cc1c[nH]cn1)NC(=O)[C@H](CC(C)C)NC(=O)[C@@H](NC(=O)[C@H](NC(=O)[C@@H](CCCCN)NC(=O)[C@H](CCCCN)NC(=O)[C@H](C)NC(=O)[C@H](CO)NC(=O)[C@H](CCCCN)NC(=O)[C@H](Cc1ccccc1)NC(=O)[C@@H](NC(=O)[C@H](CCCCN)NC(=O)[C@H](CC(C)C)NC(=O)[C@H](Cc1ccccc1)NC(=O)[C@H](CO)NC(=O)[C@H](CCCCN)NC(=O)[C@H](Cc1c[nH]c2ccccc12)NC(=O)[C@H](CCCCN)NC(C)=O)[C@@H](C)O)[C@H](C)O)C(C)C)[C@@H](C)O)C(=O)N[C@@H](CO)C(=O)N[C@@H](CO)C(N)=O [K14D/T15D] | 250 µM | 16 µM (≈ 47.9 µg/mL) | 24.1 ± 5.5 µM | 22.5 ± 0.5 µM | 31.6 ± 2.1 µM | 47.1 ± 5.3 µM | 32 µM (≈ 95.7 µg/mL) | −1862.4 degree·cm^2·dmol^−1 | −28,551.5 degree·cm^2·dmol^−1 | 56.51% | 3.7% | 40.41 min | 64 µM (≈ 191 µg/mL) | 64 µM (≈ 191 µg/mL)
2 | CC[C@H](C)[C@H](NC(=O)[C@H](C)NC(=O)[C@H](CCCCN)NC(=O)[C@H](CC(C)C)NC(=O)[C@H](C)NC(=O)[C@@H](NC(=O)[C@H](Cc1c[nH]cn1)NC(=O)[C@H](CC(C)C)NC(=O)[C@@H](NC(=O)[C@@H](NC(=O)[C@H](CCCCN)NC(=O)[C@H](CCCCN)NC(=O)[C@@H](C)NC(=O)[C@H](CO)NC(=O)[C@H](CCCCN)NC(=O)[C@H](Cc1ccccc1)NC(=O)[C@@H](NC(=O)[C@H](CCCCN)NC(=O)[C@H](CC(C)C)NC(=O)[C@H](Cc1ccccc1)NC(=O)[C@H](CO)NC(=O)[C@H](CCCCN)NC(=O)[C@H](Cc1c[nH]c2ccccc12)NC(=O)[C@H](CCCCN)NC(C)=O)[C@@H](C)O)[C@@H](C)O)C(C)C)[C@@H](C)O)C(=O)N[C@@H](CO)C(=O)N[C@@H](CO)C(N)=O [Peptide A12D] | 125 µM | 16 µM (≈ 47.9 µg/mL) | 45.1 ± 1 µM | 15.5 ± 1.7 µM | 28.8 ± 0.8 µM | 29.9 ± 4.8 µM | 16 µM (≈ 47.9 µg/mL) | −4130.9 degree·cm^2·dmol^−1 | −35,785.1 degree·cm^2·dmol^−1 | 70.83% | 8.2% | 41.46 min | 32 µM (≈ 95.7 µg/mL) | 64 µM (≈ 191 µg/mL)
3 | CC[C@H](C)[C@H](NC(=O)[C@H](C)NC(=O)[C@H](CCCCN)NC(=O)[C@H](CC(C)C)NC(=O)[C@H](C)NC(=O)[C@@H](NC(=O)[C@H](Cc1c[nH]cn1)NC(=O)[C@H](CC(C)C)NC(=O)[C@@H](NC(=O)[C@H](NC(=O)[C@@H](CCCCN)NC(=O)[C@H](CCCCN)NC(=O)[C@H](C)NC(=O)[C@@H](CO)NC(=O)[C@H](CCCCN)NC(=O)[C@H](Cc1ccccc1)NC(=O)[C@@H](NC(=O)[C@H](CCCCN)NC(=O)[C@H](CC(C)C)NC(=O)[C@H](Cc1ccccc1)NC(=O)[C@H](CO)NC(=O)[C@H](CCCCN)NC(=O)[C@H](Cc1c[nH]c2ccccc12)NC(=O)[C@H](CCCCN)NC(C)=O)[C@@H](C)O)[C@H](C)O)C(C)C)[C@@H](C)O)C(=O)N[C@@H](CO)C(=O)N[C@@H](CO)C(N)=O [S11D/K14D/T15D] | 250 µM | 16 µM (≈ 47.9 µg/mL) | 45.5 ± 5.6 µM | 54.2 ± 1.2 µM | 41.1 ± 0.5 µM | 56.8 ± 3.3 µM | 125 µM (≈ 374 µg/mL) | −2845.85 degree·cm^2·dmol^−1 | −19,537.5 degree·cm^2·dmol^−1 | 38.67% | 5.6% | 39.59 min | 125 µM (≈ 374 µg/mL) | 64 µM (≈ 191 µg/mL)
4 | CC[C@H](C)[C@H](NC(=O)[C@H](C)NC(=O)[C@H](CCCCN)NC(=O)[C@H](CC(C)C)NC(=O)[C@H](C)NC(=O)[C@@H](NC(=O)[C@H](Cc1c[nH]cn1)NC(=O)[C@H](CC(C)C)NC(=O)[C@@H](NC(=O)[C@@H](NC(=O)[C@@H](CCCCN)NC(=O)[C@H](CCCCN)NC(=O)[C@H](C)NC(=O)[C@@H](CO)NC(=O)[C@H](CCCCN)NC(=O)[C@H](Cc1ccccc1)NC(=O)[C@@H](NC(=O)[C@H](CCCCN)NC(=O)[C@H](CC(C)C)NC(=O)[C@H](Cc1ccccc1)NC(=O)[C@H](CO)NC(=O)[C@H](CCCCN)NC(=O)[C@H](Cc1c[nH]c2ccccc12)NC(=O)[C@H](CCCCN)NC(C)=O)[C@@H](C)O)[C@@H](C)O)C(C)C)[C@@H](C)O)C(=O)N[C@@H](CO)C(=O)N[C@@H](CO)C(N)=O [S11D/K14D] | 125 µM | 16 µM (≈ 47.9 µg/mL) | 22.4 ± 2.3 µM | 25.5 ± 0.5 µM | 30.6 ± 0.5 µM | 41.3 ± 2.6 µM | 32 µM (≈ 95.7 µg/mL) | −3524.85 degree·cm^2·dmol^−1 | −25,931.3 degree·cm^2·dmol^−1 | 51.33% | 7.0% | 40.77 min | 64 µM (≈ 191 µg/mL) | 64 µM (≈ 191 µg/mL)
